In paper PMC6838674, “Apelin-36-[L28A] and Apelin-36-[L28C(30kDa-PEG)] peptides that improve diet induced obesity are G protein biased ligands at the apelin receptor” (Peptides, 2019):
Substitutions are numbered along the chain they refer to. Names may count otherwise. Values belong to the molecule of their own block, whether it stands above or below them. Ends that are not written are not given here.

Columns and labels:
[1] = tested on: apelin receptor; set-up: method as in earlier work; conditions: ref 20 (Galon-Tilleman et al.), cited from earlier work
[2] = target: T1, apelin receptor (Homo sapiens, UniProt P35414); experiment: Inhibition of forskolin-induced cAMP accumulation assay (DiscoverX); assay type: cell-based; set-up: host or cells: CHO-K1; conditions: for cAMP Assay Fold change: fold change in potency relative to apelin-36; for cAMP Assay RE (relative effectiveness) / cAMP Assay ΔlogR: operational model, compared to apelin-36
T1 sequence (P35414 1-380): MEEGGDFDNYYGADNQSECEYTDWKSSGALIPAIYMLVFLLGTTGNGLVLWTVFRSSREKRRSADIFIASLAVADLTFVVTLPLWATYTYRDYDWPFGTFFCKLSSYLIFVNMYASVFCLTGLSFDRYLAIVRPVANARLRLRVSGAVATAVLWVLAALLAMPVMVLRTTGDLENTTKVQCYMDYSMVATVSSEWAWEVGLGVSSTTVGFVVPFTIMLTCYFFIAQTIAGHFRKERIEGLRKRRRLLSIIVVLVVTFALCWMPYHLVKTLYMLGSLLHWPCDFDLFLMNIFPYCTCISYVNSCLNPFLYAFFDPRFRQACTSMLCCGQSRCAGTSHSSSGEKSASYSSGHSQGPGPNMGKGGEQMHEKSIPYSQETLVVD
Procedure: Cell-based cAMP assay were performed as previously described. Briefly, Chinese Hamster Ovary cells (CHO-K1) cells artificially expressing the human apelin receptor were seeded in Cell Plating media into 96-well plates and incubated for 24 h at 37 °C in 5% CO2. […] Cells were subsequently incubated with cAMP Detection Reagent comprising cAMP Lysis Buffer, Substrate Reagent 1, Substrate Reagent 2 and cAMP Solution D for 1 h at room temperature followed by 3 h incubation with cAMP Reagent A at room temperature and chemiluminescence reading (LumiLITE™ Microplate Reader, DiscoverX). Responses were fitted to a 4-parameter logistic equation in GraphPad Prism 7 (La Jolla, CA, USA) and values of potency, pD2 (-log10 EC50, where EC50 is the concentration producing half maximal response) determined. Data were expressed as percentage inhibition of forskolin-stimulated cAMP production.
(§1) Data were expressed as mean ± SEM. Experiments were performed in triplicates or duplicates and n-values were expressed as number of independent experiments. Potencies of analogues in cell-based assays were compared to native apelin-36 using a one-way ANOVA with Dunnett’s posthoc test in GraphPad Prism 7. A P value < 0.05 was considered statistically significant. Binding affinities in both species were compared using Student’s t-test in Graphpad Prism as described above. Bias calculations were performed as previously described using the operational model for bias, to obtain values for relative effectiveness of the apelin-36 synthetic analogues compared to apelin-36 within each cell-based assay. Bias factors were calculated to compare the relative activities of the analogues between the different pathways – β-arrestin (G protein independent) and cAMP (G protein dependent).

[3] = target: T1, apelin receptor; experiment: β-Arrestin recruitment assay (DiscoverX AGTRL1); assay type: cell-based; set-up: host or cells: CHO-K1; conditions: for β-Arrestin Assay Fold change: fold change in potency relative to apelin-36; for β-Arrestin Assay RE (relative effectiveness) / β-Arrestin Assay ΔlogR: operational model, compared to apelin-36; for β-Arrestin Assay ΔlogR / β-Arrestin Assay pD2±SEM / EC50: n = 3-4 independent experiments; for β-Arrestin Assay pD2±SEM / EC50: CHO-K1 cells expressing human apelin receptor, 90 min, 37 °C, mean ± SEM, SEM; for EC50: read-out: β-Arrestin Assay pD2±SEM (converted)
Procedure: Experiments were performed using a β-arrestin GPCR Assay (AGTRL1) (DiscoverX, Lot No.: 16L0902) according to methods previously described. CHO-K1 cells artificially expressing the human apelin receptor were seeded in Cell Plating media into 96-well plates and incubated for 48 h at 37 °C in 5% CO2. […] Negative controls were defined with equal volumes of drug solvent (water). The resulting chemiluminescent signal was measured using a LumiLITE™ Microplate Reader (DiscoverX, Fremont, CA). Responses, measured in relative light units, were fitted with a 4-parameter logistic equation in GraphPad Prism 7 (La Jolla, CA, USA) and values of pD2 and maximum response (EMax) were calculated for each compound.
as §1

[4] = target: T1, apelin receptor; experiment: Bias analysis, cAMP vs β-arrestin (operational model for bias); assay type: cell-based; set-up: host or cells: CHO-K1; conditions: for cAMP vs β-arrestin Assay Bias factor: G protein (cAMP) over β-arrestin; for cAMP vs β-arrestin Assay Bias factor / cAMP vs β-arrestin Assay ΔΔlogR ± SEM: reference ligand apelin-36; for cAMP vs β-arrestin Assay ΔΔlogR ± SEM: difference between ΔlogR in cAMP and β-arrestin pathways
Procedure: as §1, with “A P value < 0.05 was considered statistically significant.” left out, “Bias calculations were performed as previously described using the operational model for bias, to obtain values for relative effectiveness of the apelin-36 synthetic analogues compared to apelin-36 within each cell-based assay.” left out

[5] = target: T2, apelin receptor (Rattus norvegicus, UniProt Q9JHG3); experiment: Radioligand competition binding, rat heart homogenate; conditions: [125I]apelin-13 0.1 nM, 90 min, competitor 50 pM-100 μM, mean ± SEM, n = 3 replicates per concentration
T2 construct: experiments using native rat and human receptor; from tissue; host or cells: pooled hearts of Sprague Dawley rats
T2 sequence (Q9JHG3 1-377): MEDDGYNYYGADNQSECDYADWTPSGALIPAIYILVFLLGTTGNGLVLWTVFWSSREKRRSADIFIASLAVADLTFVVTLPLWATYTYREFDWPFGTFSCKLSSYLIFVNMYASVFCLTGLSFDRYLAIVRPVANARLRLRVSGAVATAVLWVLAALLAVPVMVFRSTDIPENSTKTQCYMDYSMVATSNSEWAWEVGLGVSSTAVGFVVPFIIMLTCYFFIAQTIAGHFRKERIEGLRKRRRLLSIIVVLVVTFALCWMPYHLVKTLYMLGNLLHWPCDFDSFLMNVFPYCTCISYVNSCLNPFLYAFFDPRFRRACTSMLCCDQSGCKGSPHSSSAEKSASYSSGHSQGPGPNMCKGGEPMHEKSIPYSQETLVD
From the text: Samples of human left ventricle were obtained with informed consent and ethical approval (05/Q104/142) via the Papworth Hospital Research Tissue Bank (08/H0304/56) from the explanted hearts of five dilated cardiomyopathy patients (4 males and 1 female, aged 38–55 years) undergoing transplantation. Studies conformed to the principles outlined in the declaration of Helsinki. All animal research was regulated under the Animals (Scientific Procedures) Act 1986 Amendment Regulations 2012 following ethical review by the University of Cambridge Animal Welfare and Ethical Review Body (AWERB). Adult female and male Sprague Dawley rats (n = 14; aged 7–10 weeks) were sacrificed using overdose of CO2 and cervical dislocation before heart tissue was removed and frozen on dry ice. […] Final pellets were then resuspended in 10 ml HEPES buffer (50 mM HEPES, pH 7.4) and protein concentration determined. […]
(§2) Competition binding experiments were performed using pooled human homogenised left ventricle (HLV, 1.5 mg/ml) and pooled rat heart homogenates (1.5 mg/ml) as previously described. […] The samples were then re-centrifuged to collect protein pellets before bound radioactivity in these pellets were counted using Packard Cobra II Auto Gamma Counter (Packard). Data were analysed with Graphpad Prism 7 (Graphpad Software, Inc. La Jolla, CA), using the One-site Fit Ki equation.

[6] = target: T1, apelin receptor; experiment: Radioligand competition binding, human left ventricle homogenate; set-up: experiments using native rat and human receptor; from tissue; host or cells: human left ventricle from explanted hearts of dilated cardiomyopathy patients; conditions: [125I]apelin-13 0.1 nM, 90 min, competitor 50 pM-100 μM, mean ± SEM, n = 3 replicates per concentration; for Ki: human heart homogenate 1.5 mg/ml
From the text: Samples of human left ventricle were obtained with informed consent and ethical approval (05/Q104/142) via the Papworth Hospital Research Tissue Bank (08/H0304/56) from the explanted hearts of five dilated cardiomyopathy patients (4 males and 1 female, aged 38–55 years) undergoing transplantation. Studies conformed to the principles outlined in the declaration of Helsinki. All animal research was regulated under the Animals (Scientific Procedures) Act 1986 Amendment Regulations 2012 following ethical review by the University of Cambridge Animal Welfare and Ethical Review Body (AWERB). Adult female and male Sprague Dawley rats (n = 14; aged 7–10 weeks) were sacrificed using overdose of CO2 and cervical dislocation before heart tissue was removed and frozen on dry ice. Hearts were pooled and 2 g tissue transferred into a centrifuge tube (50 ml) containing 20 ml homogenisation buffer (50 mM Tris, 5 mM MgCl2, 5 mM EDTA, 1 mM EGTA at pH 7.4 with protease inhibitor cocktail) on ice. The tissue was homogenised on ice using a polytron probe with 2–3 × 20 s bursts and centrifuged at 3000 rpm for 2 min at 4 °C. The supernatant was further centrifuged at 18,500 rpm for 30 min at 4 °C. The resulting pellet was resuspended in 5 ml homogenisation buffer containing protease inhibitor cocktail and centrifuged at 18,500 rpm for 30 min at 4 °C twice. Final pellets were then resuspended in 10 ml HEPES buffer (50 mM HEPES, pH 7.4) and protein concentration determined. Samples were stored at −70 °C until required.
as §2, with “described. […] (50 pM-100 μM).” for “described.”

[7] = target: T3, apelin receptor (Rattus norvegicus), Q9JHG3; experiment: radioligand competition binding, heart homogenate; conditions: modification not given
T3 chain: T2 sequence (Q9JHG3 1-377) with L28A

[8] = n = 3-4 independent experiments
[9] = CHO-K1 cells expressing human apelin receptor, 15 μM forskolin, 30 min, 37 °C, n = 3-4 independent experiments, read-out: cAMP Assay EC50
[10] = CHO-K1 cells expressing human apelin receptor, 15 μM forskolin, 30 min, 37 °C, mean ± SEM, n = 3-4 independent experiments, SEM, read-out: cAMP Assay pD2±SEM (converted)

- EC50 [2, 9]: 13.1 nM
- EC50 [3]: 37.2 nM
Molecule: LVQPRGSRNGPGPWQGGRRKFRRQRPRASHKGPMPF [Apelin-36-[L28A]]
- Ki [6]: 3.02 nM

- Ki [5]: 0.0589 nM
- EC50 [2, 10]: 0.912 nM
- EC50 [3]: 0.676 nM
Molecule: LVQPRGSRNGPGPWQGGRRKFRRQRPRLSHKGPMPF [Apelin-36]
- Ki [6]: 0.0525 nM

- Ki [7]: 0.309 nM
B1: apelin-36-[L28A] (peptide)
chain: LVQPRGSRNGPGPWQGGRRKFRRQRPRASHKGPMPF
modifications: not fully specified

Further lines, the molecule ahead of its results:

Molecule: Apelin-36-[L28C(30kDa-PEG)]: apelin-36 with leucine-28 to cysteine substitution, cysteine-28 PEGylated (30kDa)
- fold less potent / less active at apelin receptor compared to apelin-36 ([1]; β-arrestin activation): 10,000 fold
- cAMP Assay Fold change [2]: 104 fold
- cAMP Assay RE (relative effectiveness) [2]: 0.01
- cAMP Assay ΔlogR [2, 8]: −1.95 ± 0.31
- β-Arrestin Assay Fold change ([3]; listed as Apelin-36-[L28C (30kDa-PEG)]): 1324 fold
- β-Arrestin Assay Fold change ([3]; listed as apelin-36-[L28C(30kDa-PEG)]): 1400 fold
- β-Arrestin Assay RE (relative effectiveness) [3]: 0.0002
- β-Arrestin Assay ΔlogR [3]: −3.71 ± 0.12
- fold more potent in the cAMP assay compared to the β-arrestin assay ([4]; CHO-K1 cells expressing human apelin receptor): ~10 fold
- cAMP vs β-arrestin Assay Bias factor [4]: 58
- cAMP vs β-arrestin Assay ΔΔlogR ± SEM [4]: 1.76 ± 0.33

Molecule: Apelin-36-[L28C(30kDa-PEG)]: apelin-36 with leucine-28 to cysteine substitution, cysteine-28 PEGylated (30kDa) (LVQPRGSRNGPGPWQGGRRKFRRQRPRCSHKGPMPF)
- pKi [5]: 8.06 ± 0.37
- EC50 [2, 9]: 95.3 nM
- β-Arrestin Assay pD2±SEM [3]: 6.05 ± 0.06
- pKi ([6]; human heart homogenate […]): 8.00 ± 0.05

Molecule: [40kDa-PEG]-Apelin-36: N-terminal PEGylated (40kDa) apelin-36
- cAMP Assay Fold change [2]: 2 fold
- cAMP Assay RE (relative effectiveness) [2]: 1.20
- cAMP Assay ΔlogR [2, 8]: 0.08 ± 0.40
- β-Arrestin Assay Fold change [3]: 3 fold
- β-Arrestin Assay RE (relative effectiveness) [3]: 0.26
- β-Arrestin Assay ΔlogR [3]: −0.59 ± 0.16
- cAMP vs β-arrestin Assay Bias factor [4]: 5
- cAMP vs β-arrestin Assay ΔΔlogR ± SEM [4]: 0.67 ± 0.43

Molecule: Apelin-13 [reference compound]
- agonist character at apelin receptor (comment) ([1]; comment in Table 1): QRPRLSHKGPMPF (full agonist)

Molecule: LVQPRGSRNGPGAWQGGRRKFRRQRPRASHKGPMPF [Apelin-36-[A13 A28]]
- EC50 [2, 10]: 7.59 nM
- EC50 [3]: 151 nM

Molecule: LVQPRGSRNGPGPWQGGRRKFRRQRPRLSHKGPMPA [Apelin-36-[F36A]]
- EC50 [2, 10]: 1.26 nM
- EC50 [3]: 8.13 nM

Molecule: [40kDa-PEG]-Apelin-36: N-terminal PEGylated (40kDa) apelin-36 (LVQPRGSRNGPGPWQGGRRKFRRQRPRLSHKGPMPF)
- cAMP Assay pD2±SEM ([2]; CHO-K1 cells expressing human apelin receptor, 15 μM forskolin, 30 min, 37 °C, mean ± SEM, n = 3-4 independent experiments, SEM): 8.69 ± 0.22
- β-Arrestin Assay pD2±SEM [3]: 8.71 ± 0.15
